From PMC6151782, “Synthesis, In Vitro α-Glucosidase Inhibitory Activity and Molecular Docking Studies of Novel Benzothiazole-Triazole Derivatives” (Molecules : A Journal of Synthetic Chemistry and Natural …, 2017)

Legend:
[1] = target: T1, Baker’s yeast α-glucosidase enzyme (Saccharomyces cerevisiae, UniProt P53341); assay: biochemical
T1 construct: purchased
From the text: The sample solution was replaced by DMSO as a control. Acarbose was used as a positive control.

T1 sequence (P53341 whole entry): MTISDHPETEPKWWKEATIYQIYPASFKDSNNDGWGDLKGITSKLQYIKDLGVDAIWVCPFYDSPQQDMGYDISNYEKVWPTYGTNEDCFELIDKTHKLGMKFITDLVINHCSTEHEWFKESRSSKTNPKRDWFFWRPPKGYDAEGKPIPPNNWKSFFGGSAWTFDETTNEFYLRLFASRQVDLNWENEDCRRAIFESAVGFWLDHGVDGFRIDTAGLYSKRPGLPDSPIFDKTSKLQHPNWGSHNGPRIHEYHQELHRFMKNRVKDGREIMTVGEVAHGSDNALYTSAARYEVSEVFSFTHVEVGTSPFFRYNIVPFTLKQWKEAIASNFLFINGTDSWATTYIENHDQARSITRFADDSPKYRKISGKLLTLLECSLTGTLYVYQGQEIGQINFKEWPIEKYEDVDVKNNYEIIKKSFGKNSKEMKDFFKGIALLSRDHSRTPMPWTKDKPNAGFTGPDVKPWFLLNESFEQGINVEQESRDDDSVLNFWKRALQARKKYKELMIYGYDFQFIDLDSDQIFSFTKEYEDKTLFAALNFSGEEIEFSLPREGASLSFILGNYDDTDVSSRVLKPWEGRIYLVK

Compound	melting point	IC50 [1]
Brc1ccc(Cn2cc(CSc3nc4ccccc4s3)nn2)cc1 [Compound 6a, 2-(((1-(4-Bromobenzyl)-1H-1,2,3-triazol-4-yl)methyl)thio)benzo[d]thiazole]	112 to 114 °C	28.7 µM
Clc1ccccc1Cn1cc(CSc2nc3ccccc3s2)nn1 [Compound 6b, 2-(((1-(2-Chlorobenzyl)-1H-1,2,3-triazol-4-yl)methyl)thio)benzo[d]thiazole]	110 to 111 °C	> 100 µM
Brc1ccccc1Cn1cc(CSc2nc3ccccc3s2)nn1 [Compound 6c, 2-(((1-(2-Bromobenzyl)-1H-1,2,3-triazol-4-yl)methyl)thio)benzo[d]thiazole]	104 to 106 °C	37.4 µM
Fc1cccc(Cn2cc(CSc3nc4ccccc4s3)nn2)c1 [Compound 6d, 2-(((1-(3-Fluorobenzyl)-1H-1,2,3-triazol-4-yl)methyl)thio)benzo[d]thiazole]	112 to 114 °C	61.1 µM
Clc1ccc(Cn2cc(CSc3nc4ccccc4s3)nn2)cc1 [Compound 6e, 2-(((1-(4-Chlorobenzyl)-1H-1,2,3-triazol-4-yl)methyl)thio)benzo[d]thiazole]	119 to 120 °C	27.4 µM
Fc1ccccc1Cn1cc(CSc2nc3ccccc3s2)nn1 [Compound 6f, 2-(((1-(2-Fluorobenzyl)-1H-1,2,3-triazol-4-yl)methyl)thio)benzo[d]thiazole]	86 to 88 °C	> 100 µM
c1ccc(Cn2cc(CSc3nc4ccccc4s3)nn2)cc1 [Compound 6g, 2-(((1-Benzyl-1H-1,2,3-triazol-4-yl)methyl)thio)benzo[d]thiazole]	109 to 110 °C	> 100 µM
CC(C)(C)c1ccc(Cn2cc(CSc3nc4ccccc4s3)nn2)cc1 [Compound 6i, 2-(((1-(4-(Tert-butyl)benzyl)-1H-1,2,3-triazol-4-yl)methyl)thio)benzo[d]thiazole]	77 to 78 °C	29.4 µM
Fc1ccccc1Cn1cc(CSc2nc3cc(Cl)ccc3s2)nn1 [Compound 6j, 5-Chloro-2-(((1-(2-fluorobenzyl)-1H-1,2,3-triazol-4-yl)methyl)thio)benzo[d]thiazole]	115 to 117 °C	45.9 µM
Clc1ccc2sc(SCc3cn(Cc4ccccc4Br)nn3)nc2c1 [Compound 6k, 2-(((1-(2-Bromobenzyl)-1H-1,2,3-triazol-4-yl)methyl)thio)-5-chlorobenzo[d]thiazole]	119 to 120 °C	48.4 µM
Clc1ccc2sc(SCc3cn(Cc4ccccc4Cl)nn3)nc2c1 [Compound 6l, 5-Chloro-2-(((1-(2-chlorobenzyl)-1H-1,2,3-triazol-4-yl)methyl)thio)benzo[d]thiazole]	128 to 130 °C	33.6 µM
Clc1ccc(Cn2cc(CSc3nc4cc(Cl)ccc4s3)nn2)cc1 [Compound 6m, 5-Chloro-2-(((1-(4-chlorobenzyl)-1H-1,2,3-triazol-4-yl)methyl)thio)benzo[d]thiazole]	111 to 112 °C	28.2 µM
Clc1ccc2sc(SCc3cn(Cc4ccc(Br)cc4)nn3)nc2c1 [Compound 6n, 2-(((1-(4-Bromobenzyl)-1H-1,2,3-triazol-4-yl)methyl)thio)-5-chlorobenzo[d]thiazole]	114 to 116 °C	28 µM
Clc1cc(Cl)cc(Cn2cc(CSc3nc4cc(Cl)ccc4s3)nn2)c1 [Compound 6o, 5-Chloro-2-(((1-(3,5-dichlorobenzyl)-1H-1,2,3-triazol-4-yl)methyl)thio)benzo[d]thiazole]	124 to 126 °C	22.3 µM
Fc1cccc(Cn2cc(CSc3nc4cc(Cl)ccc4s3)nn2)c1 [Compound 6p, 5-Chloro-2-(((1-(3-fluorobenzyl)-1H-1,2,3-triazol-4-yl)methyl)thio)benzo[d]thiazole]	140 to 141 °C	38.6 µM
Fc1ccc(Cn2cc(CSc3nc4cc(Cl)ccc4s3)nn2)cc1 [Compound 6q, 5-Chloro-2-(((1-(4-fluorobenzyl)-1H-1,2,3-triazol-4-yl)methyl)thio)benzo[d]thiazole]	108 to 109 °C	53.1 µM
Clc1ccc2sc(SCc3cn(Cc4ccccc4)nn3)nc2c1 [Compound 6r, 2-(((1-Benzyl-1H-1,2,3-triazol-4-yl)methyl)thio)-5-chlorobenzo[d]thiazole]	142 to 144 °C	44.4 µM
